Reference: US11466044B2 (WAYNE STATE UNIVERSITY, priority 2017, dated 2022)
Values after ≈ are worked out from the molar mass of the structure shown. Structures can show the parent of a compound that is named as a salt. Where two headings read alike, the source gives them in different places.

What was measured:
MRSA = assay: MIC by broth microdilution, MRSA isolates; format: cell-based; conditions: Staphylococcus aureus, MRSA, Table 1 (Example 3)
[1] = test system: Klebsiella pneumonia AG215; assay: MIC by broth microdilution, Klebsiella pneumonia; format: cell-based; conditions: Klebsiella pneumoniae; strain AG215 Klebsiella pneumonia; read-out: MIC AG215 K. pneumon
N. gonorrhoeae = assay: Disk diffusion, N. gonorrhoeae; format: cell-based; conditions: Neisseria gonorrhoeae
[2] = test system: wild type bacterial ribosomes; assay: in-vitro translation assay, bacterial ribosomes; format: biochemical; conditions: for IC50: bacterial ribosome, Table 4 (Example 3), read-out: IC50 Bac; for selectivity for the bacterial ribosome over mitochondrial (wild type, A1555G mutant) and cytosolic ribosomes, in words: compared with the parent compound
Description: (§1) The antiribosomal activity of these compounds was investigated with cell-free translation assays using both wild type bacterial ribosomes and hybrid ribosomes carrying eukaryotic decoding A sites enabling the prediction of selectivity.

E coli wild type = assay: MIC by broth microdilution, wild type E coli; format: cell-based; conditions: for MIC: Escherichia coli; for antibacterial activity, in words: MRSA and E coli, compared with the parent compound
[3] = test system: E coli carrying specific resistance determinants; assay: MIC by broth microdilution, E coli carrying specific resistance determinants; format: cell-based; conditions: for MIC: Escherichia coli
M. smegmatis SZ380 = assay: MIC by broth microdilution, M. smegmatis; conditions: Mycolicibacterium smegmatis
[4] = test system: cytosolic ribosome (human chimeric); format: biochemical; conditions: for Selectivity for Binding to the Bacterial Ribosome over the Cytosolic Ribosome: Table 3 (Example 3); for IC50: cytosolic, Table 4 (Example 3), read-out: IC50 Cyt
Description: as §1

[5] = test system: mitochondrial ribosome (human chimeric); format: biochemical; conditions: for Selectivity for Binding to the Bacterial Ribosome over the Mitochondrial Ribosome: Table 3 (Example 3); for IC50: mitochondrial, Table 4 (Example 3), read-out: IC50 Mit
Description: as §1

[6] = test system: Enterobacter cloacae AG290; assay: MIC by broth microdilution, Enterobacter cloacae; format: cell-based; conditions: strain AG290 Enterobacter cloacae; read-out: MIC AG290 E. cloacae
M. abscessus = assay: MIC by broth microdilution, M. abscessus; format: cell-based; conditions: Mycobacteroides abscessus
[7] = test system: Acinetobacter baumannii pittii AG225; assay: MIC by broth microdilution, Acinetobacter baumannii; format: cell-based; conditions: strain AG225 Acinetobacter baumannii pittii
P aeruginosa = assay: MIC by broth microdilution, P aeruginosa isolates; format: cell-based, Pseudomonas aeruginosa; conditions: strain AG220 Pseudomonas aeruginosa ATCC27853; read-out: MIC AG220 P. aerugin
[8] = test system: A1555G mutant mitochondrial ribosome (human chimeric); assay: in-vitro translation assay, human chimeric ribosomes, A1555G mutant mitochondrial decoding site; format: biochemical; conditions: Table 3 (Example 3)
Description: as §1

[9] = Casinelli et al., J Antibiotics 1978, 31, 378 and 382; cited from earlier work
[10] = clinical isolate AG038, read-out: MIC MRSA AG038
[11] = clinical isolate AG039, read-out: MIC MRSA AG039
[12] = clinical isolate AG042, read-out: MIC MRSA AG042
[13] = AG006 Wild type, Table 2 (Example 3), read-out: MIC E coli AG006 Wild type
[14] = AG104 Wild type, Table 2 (Example 3), read-out: MIC E coli AG104 Wild type
[15] = ATCC25922, strain AG212 E. coli (ATCC25922), read-out: MIC AG212 E. coli
[16] = WT, Table 4 (Example 3), read-out: MIC E. coli WT
[17] = WT, Table 5 (Example 3), read-out: MIC E. coli WT
[18] = clinical isolate AG001, Table 1 (Example 3), read-out: MIC E coli AG001
[19] = clinical isolate AG003, Table 1 (Example 3), read-out: MIC E coli AG003
[20] = clinical isolate AG055, Table 1 (Example 3), read-out: MIC E coli AG055
[21] = read-out: MIC E coli AG106 AAC(2′)
[22] = read-out: MIC E. coli AAC(2′) AG106
[23] = read-out: MIC E. coli AAC(2′) pH434
[24] = read-out: MIC E. coli AG106 AAC(2′)-Ia
[25] = read-out: MIC E. coli pGB2armA armA
[26] = read-out: MIC E. coli pH434 AAC(2′)-Ib
[27] = SZ380, read-out: MIC M. smegmatis SZ380 WT, SZ380 WT, Table 5 (Example 3)
[28] = SZ380, read-out: MIC SZ380 M. smegmatis, strain SZ380 Mycobacterium smegmatis
[29] = ATCC19977, ATCC 19977 WT, Table 5 (Example 3), read-out: MIC M. abscessus ATCC 19977 WT
[30] = read-out: MIC M. abscessus engineered Δeis2
[31] = ATCC, Table 4 (Example 3), read-out: MIC M. abscessus ATCC
[32] = Clin. Isol., Table 4 (Example 3), read-out: MIC M. abscessus Clin. Isol.
[33] = clinical isolate AG044, read-out: MIC MRSA AG044

| Structure (SMILES) | MIC (MRSA; [10]) [µg/mL] | MIC (MRSA; [11]) [µg/mL] | MIC (MRSA; [12]) [µg/mL] | MIC [1] [µg/mL] | IC50 [2] [nM] | selectivity for the bacterial ribosome over mitochondrial (wild type, A1555G mutant) and cytosolic ribosomes, in words [2] | MIC (E coli wild type; [15]) [µg/mL] | MIC (E coli wild type; [16]) [µg/mL] | MIC (E coli wild type; [17]) [µg/mL] | MIC (E coli wild type; [18]) [µg/mL] | MIC (E coli wild type; [19]) [µg/mL] | MIC (E coli wild type; [20]) [µg/mL] | MIC [3, 22] [µg/mL] | MIC [3, 23] [µg/mL] | MIC [3, 25] [µg/mL] | MIC [3, 26] [µg/mL] | MIC (M. smegmatis SZ380; [27]) [µg/mL] | MIC (M. smegmatis SZ380; [28]) [µg/mL] | Selectivity for Binding to the Bacterial Ribosome over the Cytosolic Ribosome [4] | IC50 [4] [µM] | further results |
| --- | --- | --- | --- | --- | --- | --- | --- | --- | --- | --- | --- | --- | --- | --- | --- | --- | --- | --- | --- | --- | --- |
| CNC1C(OC2C(N)CC(N)C(O)C2OC2OC(CO)C(OC3OC(CN)C(O)C(O)C3N)C2O)OC(CN)C(O)C1O (stereo not drawn) [Compound 171, 2′-N-Methyl-neomycin acetate salt] | 0.25 to 0.5 | > 32 | > 32 | 0.5 | 10 | increased selectivity for the bacterial ribosome | 1 | 0.5 | 0.5 | 1 | 1 | 1 | 0.5 | 4 | 1 | 4 | < 0.063 | < 0.0625 | 4000 | 37 | zone of inhibition at 25 nmol/disc (N. gonorrhoeae): 9 mm; MIC (E coli wild type; [13]): 0.25 µg/mL; MIC (E coli wild type; [14]): 0.5 µg/mL; MIC [3, 21]: 0.5 µg/mL; MIC [3, 24]: 0.5 µg/mL; Selectivity for Binding to the Bacterial Ribosome over the Mitochondrial Ribosome [5]: 483; IC50 [5]: 4.7 µM; MIC [6]: 0.5 to 1 µg/mL; MIC (M. abscessus; [29]): 0.25 µg/mL; MIC (M. abscessus; [30]): 0.063 µg/mL; MIC (M. abscessus; [31]): 0.25 µg/mL; MIC (M. abscessus; [32]): 0.5 µg/mL; MIC [7]: 1 µg/mL; MIC (P aeruginosa): > 64 µg/mL; Selectivity for Binding to the Bacterial Ribosome over the Mutant Mitochondrial Ribosome [8]: 117 |
| CCNC1C(OC2C(N)CC(N)C(O)C2OC2OC(CO)C(OC3OC(CN)C(O)C(O)C3N)C2O)OC(CN)C(O)C1O (stereo not drawn) [Compound 172, 2′-N-Ethyl-neomycin acetate salt] | 0.5 | > 32 | > 32 | 0.5 | 10 | increased selectivity for the bacterial ribosome | 1 | 0.5 to 1 | 0.5 to 1 | 1 to 2 | 1 | 1 | 0.5 | 1 | 1 | 1 | < 0.063 | < 0.0625 | 3111 | 43 | zone of inhibition at 25 nmol/disc (N. gonorrhoeae): 9 mm; MIC (E coli wild type; [13]): 0.5 µg/mL; MIC (E coli wild type; [14]): 0.5 µg/mL; MIC [3, 21]: 0.5 µg/mL; MIC [3, 24]: 0.5 µg/mL; Selectivity for Binding to the Bacterial Ribosome over the Mitochondrial Ribosome [5]: 850; IC50 [5]: 11 µM; MIC [6]: 0.5 to 1 µg/mL; MIC (M. abscessus; [29]): 0.25 µg/mL; MIC (M. abscessus; [30]): 0.063 µg/mL; MIC (M. abscessus; [31]): 0.25 µg/mL; MIC (M. abscessus; [32]): 0.5 µg/mL; MIC [7]: 1 µg/mL; MIC (P aeruginosa): > 32 µg/mL; Selectivity for Binding to the Bacterial Ribosome over the Mutant Mitochondrial Ribosome [8]: 111 |
| NCC1OC(OC2C(CO)OC(OC3C(O)C(N)CC(N)C3OC3OC(CN)C(O)C(O)C3O)C2O)C(N)C(O)C1O (stereo not drawn) [Compound 119] | 2 (≈ 3.25 µM) | > 128 | > 128 | 0.5 (≈ 0.812 µM) | 30 | increased selectivity for the bacterial ribosome | 1 (≈ 1.62 µM) | 0.5 to 1 (≈ 0.812 to 1.62 µM) | 0.5 to 1 (≈ 0.812 to 1.62 µM) | 2 to 4 (≈ 3.25 to 6.5 µM) | 2 to 4 (≈ 3.25 to 6.5 µM) | 2 to 4 (≈ 3.25 to 6.5 µM) | 1 (≈ 1.62 µM) | 4 (≈ 6.5 µM) | 1 (≈ 1.62 µM) | 4 (≈ 6.5 µM) | 0.5 (≈ 0.812 µM) | 0.5 (≈ 0.812 µM) | 3667 | 108 | MIC (MRSA; [33]): 2 µg/mL (≈ 3.25 µM); MIC (E coli wild type; [13]): 0.5 µg/mL (≈ 0.812 µM); MIC (E coli wild type; [14]): 1 µg/mL (≈ 1.62 µM); antibacterial activity, in words (E coli wild type): little to no loss of antibacterial activity; effect of the AAC(2′) resistance determinant, in words [3]: overcomes the effect of AAC(2′); MIC [3, 21]: 1 µg/mL (≈ 1.62 µM); MIC [3, 24]: 1 µg/mL (≈ 1.62 µM); Selectivity for Binding to the Bacterial Ribosome over the Mitochondrial Ribosome [5]: 1222; IC50 [5]: 36 µM; MIC [6]: 1 µg/mL (≈ 1.62 µM); MIC (M. abscessus; [29]): 2 µg/mL (≈ 3.25 µM); MIC (M. abscessus; [30]): 0.125 µg/mL (≈ 0.203 µM); MIC (M. abscessus; [31]): 2 µg/mL (≈ 3.25 µM); MIC (M. abscessus; [32]): 4 µg/mL (≈ 6.5 µM); MIC [7]: 1 µg/mL (≈ 1.62 µM); antibiotic potency compared with the parent compounds, in words [9]: comparable antibiotic potency to the parent compounds; MIC (P aeruginosa): > 64 µg/mL; Selectivity for Binding to the Bacterial Ribosome over the Mutant Mitochondrial Ribosome [8]: 94 |
| CCCNC1C(OC2C(N)CC(N)C(O)C2OC2OC(CO)C(OC3OC(CN)C(O)C(O)C3N)C2O)OC(CO)C(O)C1O (stereo not drawn) [Compound 128, 2′-N-Propyl-paromomycin acetate salt] | 8 to 16 | > 128 | > 128 | 2 | 50 | increased selectivity for the bacterial ribosome | 4 | 2 | 2 | 16 | 16 | 16 | 2 | 4 | 4 to 8 | 4 | 2 | 2 | 425 | 21 | MIC (MRSA; [33]): 4 µg/mL; zone of inhibition at 25 nmol/disc (N. gonorrhoeae): 11 mm; Selectivity for Binding to the Bacterial Ribosome over the Mitochondrial Ribosome [5]: 3066; IC50 [5]: 153 µM; MIC [6]: 2 µg/mL; MIC (M. abscessus; [29]): 32 µg/mL; MIC (M. abscessus; [30]): 1 µg/mL; MIC (M. abscessus; [31]): 32 µg/mL; MIC (M. abscessus; [32]): 64 µg/mL; MIC [7]: 4 µg/mL; MIC (P aeruginosa): > 64 µg/mL; Selectivity for Binding to the Bacterial Ribosome over the Mutant Mitochondrial Ribosome [8]: 763 |
| NCC1OC(OC2C(N)CC(N)C(O)C2OC2OC(CO)C(OC3OC(CN)C(O)C(O)C3N)C2O)CC(O)C1O (stereo not drawn) [Compound 173, 2′-Deamino-neomycin acetate salt] | 1 | 32 | 32 | 0.5 | 30 | increased selectivity for the bacterial ribosome | 1 | 1 | 1 | 2 | 1 to 2 | 2 | 1 | 8 | 1 | 8 | 0.25 | 0.25 | 3188 | 85 | zone of inhibition at 25 nmol/disc (N. gonorrhoeae): 10 mm; MIC (E coli wild type; [13]): 1 µg/mL; MIC (E coli wild type; [14]): 0.5 to 1 µg/mL; antibacterial activity, in words (E coli wild type): little to no loss of antibacterial activity; effect of the AAC(2′) resistance determinant, in words [3]: overcomes the effect of AAC(2′); MIC [3, 21]: 1 µg/mL; MIC [3, 24]: 1 µg/mL; Selectivity for Binding to the Bacterial Ribosome over the Mitochondrial Ribosome [5]: 831; IC50 [5]: 22 µM; MIC [6]: 1 µg/mL; MIC (M. abscessus; [29]): 4 µg/mL; MIC (M. abscessus; [30]): 0.125 µg/mL; MIC (M. abscessus; [31]): 4 µg/mL; MIC (M. abscessus; [32]): 8 µg/mL; MIC [7]: 1 µg/mL; MIC (P aeruginosa): > 64 µg/mL; Selectivity for Binding to the Bacterial Ribosome over the Mutant Mitochondrial Ribosome [8]: 31 |
